The test system of assay [1] is primary cilia of Shh-EGFP cells. Kind of assay: Quantitative assessment of ciliogenesis (Arl13b staining, cilia size). The assay is classed as cell-based. As to conditions: 24 hours, read-out: Primary cilia size (percent of DMSO control at a 30 μM dose). Here is the method:
Shh-EGFP cells [J. Hyman et al., Proc. Natl. Acad. Sci. U.S.A., (2009)], an NIH-3T3-based cell line containing a stably integrated Gli-responsive enhanced green fluorescent protein reporter, were maintained in DMEM containing 10% calf serum, 100 U/mL penicillin, and 0.1 mg/mL streptomycin. The cells were seeded into 24-well plates containing poly-D-lysine-coated 12-mm glass coverslips at a density of 30,000 cells/well and cultured for 36 hours. The cells were transferred into DMEM containing 0.5% calf serum, the antibiotics described above, and either individual compounds at a 30 μM concentration or 0.3% DMSO. After being cultured for another 24 hours, the cells were fixed in PBS containing 4% paraformaldehyde for 10 minutes at room temperature, washed 3×5 minutes with PBS, permeabilized with PBS containing 0.3% Triton X-100 for 5 minutes, and blocked overnight at 4° C. with PBS containing 5% normal goat serum, 0.1% Triton X-100, and 0.05% sodium azide. The coverslips were then incubated for 90 minutes at room temperature with blocking buffer containing rabbit polyclonal anti-Arl 13b antibody (1:3000 dilution), washed 4×5 minutes with PBS containing 0.1% Triton X-100, and incubated for 60 minutes with blocking buffer containing Alexa Fluor 488-conjugated goat polyclonal anti-rabbit IgG antibody (1:300 dilution; Invitrogen, A-11034). Following this secondary antibody incubation, nuclei were stained by incubating the cells 2×10 minutes with PBS containing 0.1% Triton X-100 and […] 4′,6-diamidino-2-phenylindole (DAPI) and washing them 2×5 minutes with PBS. The coverslips were subsequently mounted onto slides using Prolong Gold Antifade Reagent (Invitrogen) and imaged using an HC Plan Apochromat CS 20×/0.70 NA oil immersion objective on a Leica DMI6000B compound microscope equipped with a Photometric CoolSNAP HQ CCD camera and Metamorph software (Molecular Devices). Images of Arl13b staining in DMSO-treated cells were manually examined to establish a minimum threshold value for cilia staining intensity. ImageJ software was then used to define objects consisting of two or more adjacent pixels with a signal intensity equal to or greater than this threshold value, and the total object area within an individual image was used to estimate the total pixel area of primary cilia. Corresponding images of DAPI staining were processed in parallel using CellProfiler software to establish the number of nuclei per image. The average cilia size per cell within an individual image was then determined by dividing the total ciliary pixel area by the number of nuclei. Ten individual images, each containing approximately 150 cells. were used to quantify the average cilia size for each experimental condition.
Shh-EGFP cells, an NIH-3T3-based cell line containing a stably integrated Gli-responsive enhanced green fluorescent protein reporter, were maintained in DMEM containing 10% (v/v) calf serum, 100 U/mL penicillin, and 0.1 mg/mL streptomycin. The cells were seeded into 24-well plates containing poly-D-lysine-coated 12-mm glass coverslips at a density of 30,000 cells/well and cultured for 36 hours. The cells were transferred into DMEM containing 0.5% (v/v) calf serum, the antibiotics described above, and either individual dihydroquinazolinones at a 30 μM concentration or an equivalent amount of DMSO vehicle (0.3%, v/v). After being cultured for another 24 hours, the cells were fixed in PBS containing 4% (w/v) paraformaldehyde for 10 min at room temperature, washed 3×5 min with PBS, permeabilized with PBS containing 0.3% (v/v) Triton X-100 for 5 min, and blocked overnight at 4° C. with PBS containing 5% (v/v) normal goat serum, 0.1% (v/v) Triton X-100, and 0.05% (w/v) sodium azide. […]

For assay [2], the system named is Hh pathway (Gli-responsive firefly luciferase reporter in Shh-LIGHT2 cells). Kind of assay: Shh-LIGHT2 assay for Hh pathway activity. The assay is classed as cell-based. As to conditions: 10% Shh-conditioned medium, 24 hours, firefly/Renilla luciferase ratio. Here is the method: Shh-N-conditioned medium was prepared as described by Chen et al., Proc. Natl. Acad. Sci. U.S.A. 99, 14071 (2002). Shh-LIGHT2 cells [J. Taipale et al., Nature 406, 1005 (2000)], an NIH-3T3-based cell line containing a stably integrated Gli-responsive firefly luciferase reporter and a constitutive thymidine kinase promoter-driven Renilla luciferase expression construct (pRLTK, Promega), were cultured in DMEM containing 10% calf serum. 100 U/mL penicillin, and 0.1 mg/mL streptomycin. The cells were seeded into 96-well plates at a density of 30,000 cells/well, and the following day they were treated with individual compounds or DMSO in DMEM containing 0.5% calf serum, 10% Shh-conditioned medium, and the antibiotics described above. After being cultured for another 24 hours, the cells were lysed and their firefly and Renilla luciferase activities were determined using, a dual luciferase reporter kit (Promega) and a microplate luminometer (Veritas). Average values representing the firefly luciferase/Renilla luciferase ratio from triplicate samples were used to construct dose response profiles for each compound. Dose-response data from three separate experiments were independently curve-fitted with a variable slope, sigmoidal dose-response algorithm using Prism software, and the resulting IC50 values were used to generate an average IC50 for each compound.

The term IC50 denotes the concentration needed to halve the response being measured. `N#C/C(C(=O)c1ccccc1)=C1\NC(=O)c2ccccc2N1` [Example 16, 3-oxo-2-(4-oxo-3,4-dihydroquinazolin-2(1H)-ylidene)-3-phenylpropanenitrile]: the activity at 30 µM in assay [1] was found to be 95%. For the same compound, in assay [2], the IC50 stood at 23 µM.
For `N#C/C(C(=O)c1ccc(Cl)cc1Cl)=C1\NC(=O)c2ccc(Cl)cc2N1` [Example 31, 2-(7-chloro-4-oxo-3,4-dihydroquinazolin-2(1H)-ylidene)-3-(2,4-dichlorophenyl)-3-oxo-propanenitrile], in that order: 7% and 15 µM.
In the same order, the values of `N#C/C(C(=O)c1ccc(Cl)cc1Cl)=C1\NC(=O)c2ccccc2N1` [Example 1, 3-(2,4-dichlorophenyl)-3-oxo-2-(4-oxo-3,4-dihydroquinazolin-2(1H)-ylidene)propanenitrile] are 27% and 9.9 µM.
In the case of `N#C/C(C(=O)c1ccc(Cl)cc1)=C1\NC(=O)c2ccccc2N1` [Example 2, 3-(4-chlorophenyl)-3-oxo-2-(4-oxo-3,4-dihydroquinazolin-2(1H)-ylidene)propanenitrile], the activity at 30 µM in assay [1] turned out to be 74%. Moreover, the IC50 in assay [2] was 5.2 µM.
